According to the supplement of paper PMC10307832:

Legend:
Assay in all cases: relative viability (nuclei count vs DMSO), 5 days (fraction); higher = more cells survive
[1] = test system: BEN
Summary of the method: (§1)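 For relative viability, nuclei counts in treated wells were divided by those in vehicle wells. Lung cancer cell lines had been pin-tool dosed in 1536-well plates the day after seeding and cultured for 5 days, then fixed and stained in one step (final 0.05% Triton X-100, 1% formaldehyde, 1 ug/ml Hoechst) and imaged at 4×. Doses were one drug alone or a fixed anchor-drug dose plus five library-drug doses (not always all listed) in √10 steps, and values are duplicate-plate medians.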

[2] = test system: EKVX
Summary of the method: as §1

[3] = test system: HARA
Summary of the method: as §1

[4] = test system: HCC-366
Summary of the method: as §1

[5] = test system: HCC-44
Summary of the method: as §1

[6] = test system: HCC-827
Summary of the method: as §1

[7] = test system: LC-2-ad
Summary of the method: as §1

[8] = test system: LOU-NH91
Summary of the method: as §1

[9] = test system: NCI-H1355
Summary of the method: as §1

[10] = test system: NCI-H1395
Summary of the method: as §1

[11] = test system: NCI-H1437
Summary of the method: as §1

Work on `COc1cc(N2CCC(C(N)=O)CC2)ccc1Nc1nc(N)c(Cl)c(Nc2ccccc2S(=O)(=O)C(C)C)n1` [HG-5-88-01] + C[C@]1(O)C[C@@H](c2nc(-c3ccc4ccc(-c5ccccc5)nc4c3)c3c(N)nccn32)C1 [Linsitinib] (partner 1 µM) yielded a relative viability ([1]; first compound 0.04 µM) of 0.817, a relative viability ([1]; first compound 0.1265 µM) of 0.968 and a relative viability ([1]; first compound 0.4 µM) of 0.899. It also gave a relative viability ([1]; first compound 1.265 µM) of 0.767, a relative viability ([1]; first compound 4 µM) of 1.17 and a relative viability ([2]; first compound 0.04 µM) of 0.972. The relative viability ([2]; first compound 0.1265 µM) was 1.11, the relative viability ([2]; first compound 0.4 µM) was 0.889 and the relative viability ([2]; first compound 4 µM) was 1.03. The relative viability ([3]; first compound 0.04 µM) was 0.946, the relative viability ([3]; first compound 0.1265 µM) was 0.916 and the relative viability ([3]; first compound 0.4 µM) was 0.909. It also gave a relative viability ([3]; first compound 1.265 µM) of 1, a relative viability ([3]; first compound 4 µM) of 0.92 and a relative viability ([4]; first compound 0.04 µM) of 0.573. The relative viability ([4]; first compound 0.1265 µM) was 0.558, the relative viability ([4]; first compound 0.4 µM) was 0.492 and the relative viability ([4]; first compound 1.265 µM) was 0.608. It also gave a relative viability ([4]; first compound 4 µM) of 0.912, a relative viability ([5]; first compound 0.04 µM) of 0.806 and a relative viability ([5]; first compound 0.1265 µM) of 0.672. For the same molecule, the relative viability ([5]; first compound 0.4 µM) was 0.56, the relative viability ([5]; first compound 1.265 µM) was 0.648 and the relative viability ([5]; first compound 4 µM) was 0.751. For the same molecule, the relative viability ([6]; first compound 0.04 µM) was 0.953, the relative viability ([6]; first compound 0.1265 µM) was 1.04 and the relative viability ([6]; first compound 0.4 µM) was 0.934. For the same molecule, the relative viability ([6]; first compound 1.265 µM) was 0.955, the relative viability ([6]; first compound 4 µM) was 0.69 and the relative viability ([7]; first compound 0.04 µM) was 0.817. The relative viability ([7]; first compound 0.1265 µM) was 0.861, the relative viability ([7]; first compound 0.4 µM) was 0.862 and the relative viability ([7]; first compound 1.265 µM) was 0.852. It also gave a relative viability ([7]; first compound 4 µM) of 0.92, a relative viability ([8]; first compound 0.04 µM) of 1 and a relative viability ([8]; first compound 0.1265 µM) of 0.916. It also gave a relative viability ([8]; first compound 0.4 µM) of 0.841, a relative viability ([8]; first compound 1.265 µM) of 0.609 and a relative viability ([8]; first compound 4 µM) of 0.659. The relative viability ([9]; first compound 0.04 µM) was 0.863, the relative viability ([9]; first compound 0.1265 µM) was 0.85 and the relative viability ([9]; first compound 0.4 µM) was 0.864. The relative viability ([9]; first compound 1.265 µM) was 0.705, the relative viability ([9]; first compound 4 µM) was 0.767 and the relative viability ([10]; first compound 0.04 µM) was 1.13. The relative viability ([10]; first compound 0.1265 µM) was 1.02, the relative viability ([10]; first compound 0.4 µM) was 1.07 and the relative viability ([10]; first compound 1.265 µM) was 0.856. The relative viability ([10]; first compound 4 µM) was 1.09, the relative viability ([11]; first compound 0.04 µM) was 1.04 and the relative viability ([11]; first compound 0.1265 µM) was 1.04. It also gave a relative viability ([11]; first compound 0.4 µM) of 0.926 and a relative viability ([11]; first compound 1.265 µM) of 0.996.
